Among the data in PubChem BioAssay AID2401 (Southern Research Specialized Biocontainment Screening …, 2010) are IC50 values, retold here.

By IC50 is commonly meant the concentration at which inhibition is half-maximal.

“And” between values parts separate entries of the source, which are not always exact repeats. Identical values can stand only once.

This test concerns S. Typhimurium GFP reporter counter-screen, fluorescence, 4 h. The experiment in a line: nmpC-GFP reporter counter-screen in S. Typhimurium, dose response, counter-screen for PhoP regulon inhibitor project, Salmonella Typhimurium, GFP fluorescence (AID 2401;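 note: S. typhimurium with Mg-insensitive nmpC-GFP reporter grown at 10 µM Mg2+; drop in reporter fluorescence reflects general culture growth inhibition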). (The purpose of a counterscreen is to sort out artefacts and off-target activity.)
As for `CC(C)(C)CC(C)(C)c1ccc(OCCOCC[N+](C)(C)Cc2ccccc2)cc1`, the IC50 is 32.8 µM.

Consider `CC1(C)CC(=O)C(C(=O)/C=C/NCCc2ccccc2)C(=O)C1`, for which the IC50 was 122 µM.

In the case of `Cc1cc(C)n(-c2nc(NCCN(C)C)c3c4c(sc3n2)CCCC4)n1`, the IC50 is 92.1 µM.

For `Cc1nc2c(=O)n(C)c(=O)n(C)c2nc1Cl`, the half-maximal inhibitory concentration (IC50) is 106 µM.

`Cc1ccc(C)c(/C=C/C(=O)c2ccccc(=O)c2O)c1`: the concentration for half-maximal inhibition (IC50) was 38.9 µM.

On to `C1=C(CCNCc2ccccc2)CCCC1`, for which the concentration for half-maximal inhibition (IC50) was 7.93 µM.

Consider `CC1CCc2cc(F)cc3c(=O)c(C(=O)O)cn1c23` (stereo unspecified), for which the IC50 was 20.9 µM.

As for `Oc1c(Br)cc(Br)cc1C=NCc1ccccc1`, the IC50 is 99.2 µM.

As for `CCCCCCCCNC(C)C(O)c1ccc(SC(C)C)cc1` (stereo unspecified), the IC50 was 75.3 µM.

For `Nc1[nH]c(=O)ncc1F`, the IC50 is 92.7 µM.

For `Cc1ccc(C(C[N+](=O)[O-])c2c(C)cc3ccccn23)cc1` (stereo unspecified), the concentration for half-maximal inhibition (IC50) was 65 µM.

For the compound `NC1=NC[C@H](c2ccccc2)N1CCCCC1CCCCC1`, the concentration for half-maximal inhibition (IC50) is 52.2 µM.

In the case of `CNC[C@H](CC1CCCCC1)NC[C@H](Cc1ccccc1)NCCC12CC3CC(CC(C3)C1)C2`, the IC50 was 16.1 µM.

Consider `CC(C)COc1ccc(Cc2cnc(N)nc2N)cc1`, for which the IC50 was 61.8 µM.

Consider `Cc1cc(C(C)(C)CC(C)(C)C)ccc1OCCOCC[N+](C)(C)Cc1ccccc1`, for which the IC50 was 26.9 µM.

With `O=[N+]([O-])c1cc(CN2CCCC2)c2cccnc2c1O`, the half-inhibitory concentration (IC50) was 40.6 µM.

`CCCOc1ccc(C(=O)NC(=S)N2CCN(c3cc4c(cc3F)c(=O)c(C(=O)O)cn4CC)CC2)cc1`: the IC50 is 56.5 µM.

`Cc1cc(C(=O)N/N=C/c2ccc(O)c(O)c2O)c(C)n1-c1ccccc1`: the IC50 is 22.8 µM.

For the compound `Cc1cc(NC(c2cccnc2)c2ccc3cccnc3c2O)no1` (stereo unspecified), the IC50 is 105 µM.

In the case of `CC(C)C(=O)NC(c1cccc([N+](=O)[O-])c1)c1ccc2cccnc2c1O` (stereo unspecified), the IC50 was 51.7 µM.

On to `Cc1ccc(/C=C/C(=O)c2ccccc(=O)c2O)cc1C`, for which the IC50 is 25 µM.

Consider `CC[n+]1c(/C=C/N(C)c2ccccc2)n(-c2ccccc2)c2ccc(-c3nc4ccccc4s3)cc21`, for which the IC50 is 19.4 µM.

As to `CCC(C)NC(=O)c1cn(CC)c2cc(N3CCN(C)CC3)c(F)cc2c1=O` (stereo unspecified), the concentration for half-maximal inhibition (IC50) was 70.6 µM.

Consider `CC(C(=O)c1ccc(-c2ccccc2)cc1)[n+]1cccc(NC(=O)c2ccccc2)c1` (stereo unspecified), for which the IC50 was 76.6 µM.

In the case of `Cc1[nH]c2ccccc2c1C(=O)COC(=O)c1ccc([N+](=O)[O-])s1`, the half-inhibitory concentration (IC50) is 130 µM.

Turning to `CCOc1ccc(Nc2c3ccccc3nc3ccccc23)cc1`, the IC50 is 77.3 µM.

As for `O=C(N/N=C/c1ccc([N+](=O)[O-])o1)c1ccc(O)cc1`, the IC50 was 36.8 µM.

For `COc1ccc(CN2C(=O)Cc3c2nc(N)c2c(N)nc(N4CCCCC4)c(C#N)c32)cc1`, the IC50 is 120 µM.

For `O=C1OC(/C(=C\Nc2ccc(F)cc2F)[N+](=O)[O-])c2ccccc21` (stereo unspecified), the IC50 is 61.1 µM.

As to `CCn1cc(C(=O)O)c(=O)c2cc(F)c(N3CCN(C(=S)Nc4ccc(OC)cc4)CC3)cc21`, the concentration for half-maximal inhibition (IC50) is 15.3 µM.

`O=C(NNC(=O)c1cnccn1)c1ccc(Cl)cc1`: the half-inhibitory concentration (IC50) is 117 µM.

For `COc1c(N2CCNC(C)C2)c(F)cc2c(=O)c(C(=O)O)cn(C3CC3)c12` (stereo unspecified), the concentration for half-maximal inhibition (IC50) is 1.05 µM.

Turning to `Clc1ccc(CN2CCC(c3nc4ccc(Cl)cc4[nH]3)CC2)cc1`, the IC50 was 22.4 µM.

In the case of `N#CC1=C(S)N(c2ccccc2)C(c2ccc(-c3ccccc3Cl)o2)NC1=O` (stereo unspecified), the half-maximal inhibitory concentration (IC50) is 144 µM.

In the case of `CC(=O)NC(c1ccc(C)cc1)c1cc([N+](=O)[O-])c2cccnc2c1O` (stereo unspecified), the IC50 is 33.5 µM.

As to `O=C(NC(=S)NNC(=O)c1ccccc1O)c1ccco1`, the IC50 was 41.5 µM.

For `Oc1ccc(N=Cc2ccc(O)c(O)c2)cc1`, the IC50 was 118 µM.

Turning to `CCCCCOc1ccc(Br)cc1CSC(=N)N`, the IC50 is 61.1 µM.

Regarding `Clc1ccc(-c2c[n+](Cc3ccc(Cl)cc3Cl)c3n2CCCCC3)cc1`, the IC50 was 98.8 µM.

For `C=CS(=O)(=O)c1ccc(Oc2ccc(S(=O)(=O)C=C)cc2)cc1`, the 50% inhibitory concentration (IC50) was 111 µM.

As to `Cc1ccc(NC(=O)NCC2CCN(Cc3cccc(Cl)c3)CC2)cc1Cl`, the IC50 was 70.2 µM.

For the compound `CCN(CC(=O)NC(C)(C)C)C(=O)COc1c(Cl)cc(Cl)c2ccc(C)nc12`, the IC50 is 82.4 µM.

With `CC1CCC(C(C)C)C(OC(=O)Cn2c(-c3ccc(Cl)cc3)[n+](C)c3ccccc32)C1` (stereo unspecified), the IC50 was 82.9 µM.

Consider `CN(C)[C@@H]1C(=O)C(C(N)=O)=C(O)[C@@]2(O)C(=O)C3=C(O)c4c(O)cccc4[C@@](C)(O)C3[C@H](O)C12` (stereo partly specified), for which the half-maximal inhibitory concentration (IC50) is 0.79 µM.

For the compound `O=[N+]([O-])c1ccc(O)c2ncccc12`, the half-maximal inhibitory concentration (IC50) is 2.37 µM.

On to `O=C(N/N=C/c1cc([N+](=O)[O-])ccc1O)c1ccncc1`, for which the IC50 is 24.2 µM.

As for `CS(=O)(=O)c1ccc([C@@H](O)[C@@H](CO)NC(=O)C(Cl)Cl)cc1`, the IC50 is 86.2 µM.

For the compound `COC1C(OC(=O)c2ccc(C)[nH]2)C(O)C(Oc2ccc3c(O)c(NC(=O)c4ccc(O)c(CC=C(C)C)c4)c(=O)oc3c2Cl)OC1(C)C` (stereo unspecified), the 50% inhibitory concentration (IC50) was 16.5 µM.

With `Cc1nc2c(=O)n(C)c(=O)nc-2n(C)n1`, the 50% inhibitory concentration (IC50) is 1.09 µM.

Take `COc1nsnc1NS(=O)(=O)c1ccc(NC(=S)NC(=O)c2cccnc2)cc1`: the half-maximal inhibitory concentration (IC50) is 42.6 µM.

As to `Cc1ccc(Nc2cc(C)c3ccc(O)cc3n2)cc1C`, the IC50 was 146 µM.

`CN(C)c1ccc(O)c2c1CC1CC3[C@@H](N(C)C)C(=O)C(C(N)=O)=C(O)[C@]3(O)C(=O)C1=C2O` (stereo partly specified): the IC50 was 4.76 µM.

Turning to `Cc1ccc(Nc2nc(N)c3ccccc3n2)cc1Cl`, the concentration for half-maximal inhibition (IC50) was 52.2 µM.

With `CC[C@@H](C)[C@H](CNC)NC[C@@H](Cc1cccc2ccccc12)NCCc1cccc(C(F)(F)F)c1`, the half-inhibitory concentration (IC50) was 32.3 µM.

For the compound `CCn1cc(C(=O)NCCCO)c(=O)c2cc(F)c(N3CCN(C)CC3)cc21`, the IC50 was 46.8 µM.

In the case of `COc1cccc(C2Nc3ccccc3C(=O)N2O)c1O` (stereo unspecified), the IC50 is 138 µM.

As to `COc1c(N2CCN[C@H](C)C2)c(F)cc2c(=O)c(C(=O)O)cn(C3CC3)c12`, the IC50 was 0.78 µM.

As for `O=C(CN1CC(c2ccccc2)CC1=O)N/N=C/c1cc(Br)ccc1O` (stereo unspecified), the IC50 is 139 µM.

Consider `CCOC(=O)N1CCN(C(=O)c2cn(CC)c3cc(N4CCN(C)CC4)c(F)cc3c2=O)CC1`, for which the IC50 is 12 µM.

For the compound `CCCCCCCNC(=O)C1(CC2CC(c3ccc(Cl)cc3)=NO2)CCNCC1` (stereo unspecified), the IC50 was 42.5 µM.

For `COc1cc(C(=O)Oc2c(CN3CCOCC3)cc(Cl)c3cccnc23)cc(OC)c1OC`, the IC50 was 126 µM.

`Cc1scc(C(=O)N/N=C/c2ccc([N+](=O)[O-])o2)c1C`: the IC50 is 114 µM.

With `O=C(N/N=C/c1cccc([N+](=O)[O-])c1O)c1cccs1`, the IC50 was 16.8 µM.

`CCn1cc(C(=O)O)c(=O)c2cnc(N3CCNCC3)nc21`: the IC50 is 68.4 µM.

For the compound `COc1c(N2CCN(C(=S)Nc3ccccc3F)C(C)C2)c(F)cc2c(=O)c(C(=O)O)cn(C3CC3)c12` (stereo unspecified), the IC50 is 15.3 µM.

In the case of `O=C(N/N=C/c1sc2ccccc2c1O)c1cccc2ccccc12`, the half-maximal inhibitory concentration (IC50) was 23.6 µM.

As for `O=C(Nc1ccccc1)Nc1ccc(Cl)c([N+](=O)[O-])c1`, the IC50 was 42.4 µM.

As for `CC(=O)Oc1cc2cccc(OC(C)=O)c(=O)c2c(OC(C)=O)c1OC(C)=O`, the IC50 is 62.8 µM.

`CCCCOc1ccc(Br)cc1CSC(=N)N`: the IC50 is 75.5 µM.

As for `C[CH2][Hg][S]c1ccccc1C(=O)O`, the half-inhibitory concentration (IC50) was 54.9 µM.

Consider `Cc1ccc(-c2csc(N=C(N)N)n2)c(C)c1`, for which the concentration for half-maximal inhibition (IC50) was 57.2 µM.

On to `O=[N+]([O-])c1ccc(CNC2CCCc3ccccc32)cc1` (stereo unspecified), for which the half-maximal inhibitory concentration (IC50) was 97.4 µM.

With `CNc1nc(NCc2ccccc2)c2ccccc2n1`, the IC50 was 79.3 µM.

As for `O=C(NCCNc1ccc([N+](=O)[O-])cc1C(F)(F)F)c1cccc(F)c1`, the IC50 is 106 µM.

Consider `O=C1c2ccccc2NC(c2ccc(-c3ccc(Br)cc3)o2)N1O` (stereo unspecified), for which the IC50 is 38.7 µM.

Turning to `CC(=O)NC(c1ccc2ccccc2c1)c1ccc2cccnc2c1O` (stereo unspecified), the IC50 was 100 µM.

In the case of `Oc1ccc(CN2CCc3ccccc3C2)c2cccnc12`, the half-inhibitory concentration (IC50) was 18.5 µM.

For the compound `C[C@H]1c2cccc(O)c2C(O)=C2C(=O)[C@]3(O)C(O)=C(C(N)=O)C(=O)[C@@H](N(C)C)[C@@H]3[C@@H](O)[C@@H]21`, the half-inhibitory concentration (IC50) is 2.87 µM.

`O=C(CSc1ccccn1)N/N=C/c1cc([N+](=O)[O-])ccc1O`: the half-inhibitory concentration (IC50) is 34.9 µM.

With `Cc1cc(C(=O)N/N=C/c2ccc([N+](=O)[O-])s2)n[nH]1`, the IC50 is 35 µM.

Take `CCCC(=O)NC(c1ccc(Cl)cc1)c1ccc2cccnc2c1O` (stereo unspecified): the concentration for half-maximal inhibition (IC50) was 108 µM.

Regarding `NC(=NCCCCCCN=C(N)/N=C(\N)Nc1ccc(Cl)cc1)/N=C(\N)Nc1ccc(Cl)cc1`, the IC50 is 5.5 µM and 9.19 µM and 14.6 µM.

As for `CNC(=S)N1CCN(c2c(F)cc3c(=O)c(C(=O)O)cn(C4CC4)c3c2OC)CC1C` (stereo unspecified), the IC50 is 44.2 µM.

Take `COc1ccc(/C=N/Nc2cc(C)nc3ccccc23)cc1`: the half-maximal inhibitory concentration (IC50) was 51.7 µM.

For the compound `Nc1nc(F)nc2c1ncn2[C@@H]1O[C@H](CO)[C@@H](O)[C@H]1O`, the IC50 was 32.8 µM.

With `O=[N+]([O-])c1cc(Cl)c(O)c2ncccc12`, the IC50 was 5 µM.

For the compound `C#CCOCCOCCOCCNc1nc(N2CCN(C(=O)CCCCCCCCCCNC(=O)[C@H]([C@@H](C)CC)n3cc(CCCCN=C(N)N)nn3)CC2)nc(N2CCN(C(=O)CCCCCCCCCCNC(=O)[C@H](CCCN=C(N)N)n3cc(C[C@@H](C)CC)nn3)CC2)n1`, the IC50 is 45.9 µM.

Turning to `Cc1ccccc1Nc1cc(C)c2c(O)cccc2n1`, the IC50 is 41.2 µM.

On to `Nc1nonc1-n1nnc(C(=O)N/N=C/c2cc(Br)ccc2O)c1CSC1=NCCS1`, for which the half-maximal inhibitory concentration (IC50) is 19.3 µM.

Consider `Cc1cccc(Nc2cc(C)c3c(O)cccc3n2)c1C`, for which the IC50 is 38.8 µM.

Regarding `COC(=O)C1C(O)C(C)C(O)C(C)/C=C\C=C(/C)C(=O)Nc2c(C)c(OC(C)=O)c3c(c2O)C(=O)C(C)=C2OCOC(=C23)/C(C)=C/C(C)(O)C(O)C(C)C1O` (stereo unspecified), the IC50 was 22.2 µM.

`CCn1cc(C(=O)O)c(=O)c2cc(F)c(N3CCN(C)CC3)cc21`: the IC50 is 2.15 µM.

Regarding `O=C(O)Cc1sc(Nc2ccc(Cl)cc2)nc1-c1cccs1`, the IC50 is 147 µM.

For the compound `Oc1ccc(CN2CCCc3ccccc32)c2cccnc12`, the IC50 is 28.5 µM.

Regarding `c1ccc(-c2cccc(-c3ccccn3)n2)nc1`, the IC50 was 21.2 µM.

In the case of `Fc1ccc(Nc2nc(NCc3ccco3)c3ccccc3n2)cc1`, the concentration for half-maximal inhibition (IC50) was 28.2 µM.
